Entries after “also recorded” stand apart in the source; their conditions may differ.
Experiments:
[1] = test system: OA-affected cartilage; experiment: Spontaneous nitrite/nitric oxide release by OA-affected cartilage (ex vivo organ culture); type: cell-based, human
Protocol: (§1) Human osteoarthritis affected cartilage spontaneously release nitric oxide (NO) and PGE2 in the medium as previously reported (Amin et al, 1995a; 1997a). The OA-organ cultures were set up as described (Amin et al, 1995a; 1997a). Briefly, total knee articular cartilage from tibial plateau and femoral condyle were harvested from OA-affected patients. The cartilage was mixed and cut into 3-mm discs and 4-6 discs were placed in triplicate or quadruplicate, in a 24-well plate in 2.0 ml of Ham's F-12 medium supplemented with 0.2% endotoxin free human albumin, 10 mM Hepes pH 7.4 and antibiotics in the presence of various modulators, as previously described (Amin et al, 1995a; 1997a). CMT-8 was used at pharmacologically relevant concentrations in DMSO (<0.01% final concentration) as carrier. An equivalent amount of DMSO was also added in the control cultures.
(§2) The p value between control and CMT-8 treated values for PGE2≤0.1 (insignificant) whereas the p values between NMMA treated cartilage and CMT-8 treated cartilage was ≤0.001 (significant). The data are represented as mean±SD as examined by T test when n=3. Data represent±SD value as determined by Student's t test n=4. The P values described are compared with control unstimulated OA-cartilage. The data represents one of the two similar experiments. P values for PGE2 and Nitrite=^a≤0.5; ^b≤0.1; ^c≤0.05; ^d≤0.01.

[2] = test system: bovine chondrocytes; experiment: Nitrite (NO) production in LPS stimulated bovine chondrocytes; type: cell-based; conditions: FIGS. 3 and 9; LPS 100 μg/ml; words
[3] = test system: bovine chondrocytes; experiment: PGE2 production in LPS stimulated bovine chondrocytes (radioimmunoassay); type: cell-based; conditions: FIGS. 3 and 9, words
Protocol: After 48 hours the medium was changed and the cells were incubated with CMT-3 or N-monomethyl arginine (NMMA) for 2 hours before stimulating them with 100 μg/ml LPS. DMSO was used as a carrier for the modulators and the DMSO concentration was maintained (<0.01% v/v) in the cultures. Equivalent amounts of DMSO was also added to the control cultures. The levels of COX-2 dependent PGE2 release was assayed after 72 hrs by radioimmunoassay. […] The data represents mean±SD which was evaluated by T test where n=3.

[4] = test system: OA-affected cartilage; experiment: Spontaneous PGE2 release by OA-affected cartilage (ex vivo organ culture); type: cell-based, human
Protocol: as §1, §2

[5] = test system: TNFα; experiment: TNFα release in the medium by HEK 293 cells permanently transfected with human proTNFα (ELISA); type: cell-based; conditions: words
Protocol: HEK 293 cells were transfected with the proTNFα cDNA (wild) to prepare a stable cell line. […] A mutant form of proTNFα cDNA which could not be cleaved by the endogenous TNFα convertase (TACE) to release soluble TNFα was also transfected in separate human HEK 293 cells. The soluble TNFα was estimated by ELISA from the wild type and mutant transfected cells from the medium (FIG. 6).
HEK 293 cells were grown as previously described by American Type Culture Collection (ATCC). […] The HEK 293 cells were incubated with CMT-3 to examine the effects of CMT-3 on TNFα release in the medium.
HEK 293 cells were grown under the conditions previously described by ATCC. Various compounds, including CMT-3 and doxycycline/minocyclines were incubated with proTNFα transfected HEK 293 cells releasing TNFα in the medium at 16 hours. […] Soluble TNFα was estimated by ELISA from the medium.

[6] = test system: COX-2; experiment: Expression/modification (size) of COX-2 in LPS-stimulated murine macrophages, Western blot; type: cell-based; conditions: LPS 100 ng/ml
Protocol: (§3) RAW 263.7 cells were grown as previously described (Amin et al, 1995b). Murine macrophages stimulated with 100 ng/ml LPS were incubated with CMT-3 or tunicamycin (a glycosylation inhibitor). […] Nitrite and PGE2 were estimated as previously described (Amin et al, 1995b). It is quite possible that CMT-3 may inhibit COX-2 and PGE2 production by post translational modification of COX-2 which may be similar to tunicamycin inhibition. The data represents the mean±SD evaluated by T test (n=3).
Murine macrophage cells were cultivated as previously described (Amin et al, 1995b). […] cells were stimulated with 100 ng/ml of LPS in the presence of CMT-3, CMT-5 and glycosylation inhibitor, tunicamycin. The cells were grown for 16 hr and harvested. The cell free extracts were prepared as previously described (Amin et al, 1995b). In FIG. 4A, 50 μg of protein was loaded in each well and run on SDS-PAGE gels and blotted onto Western blots using a specific anti COX-2 antibody as previously described (Amin et al, 1997a). The positive control is a standard COX-2. […] The size is approximately 2000 D smaller (CMT-3 form) than the native COX-2 shown as a standard. […] These experiments indicate that CMT-3 induces modification of the COX-2 protein. The SDS PAGE analysis and Western blotting of COX-2 was carried out as described above.

[7] = test system: RAW 264.7 cells; experiment: PGE2 production/accumulation in LPS-stimulated RAW 264.7 cells; type: cell-based, murine; conditions: for inhibition at 10 µg/mL: Mus musculus, RAW264.7, 16 h, read-out: PGE2 % Inhibition or (Increase)
Protocol: (§4) Murine macrophages (RAW 263.7 cells) which were grown in Dulbecco's modified eagle medium (DMEM) containing 10% fetal bovine serum, 2 mM glutamine, 50 U/ml penicillin and 50 μg/ml streptomycin, were stimulated with 100 ng/ml LPS to induce both NOS and COX-2 at 16 hr. […] The data presented in FIG. 1 represents mean±SD as examined by T test were n=3.
(§5) The effects of CMTs 1, 2, 3, 5 and 8 on PGE2 and NO accumulation in RAW 264.7 cells were further evaluated as described above for CMT-3. […]

[8] = test system: iNOS mRNA; conditions: Amin et al, 1997b; words; cited from earlier work
[9] = test system: NOS; experiment: NOS expression in LPS-stimulated murine macrophages; type: cell-based; conditions: FIG. 2; LPS 100 ng/ml; words
Protocol: as §3

[10] = test system: RAW 264.7 cells; experiment: Nitrite (NO) production/accumulation in LPS-stimulated RAW 264.7 cells; type: cell-based, murine; conditions: LPS 100 ng/ml; for Nitrite / inhibition at 10 µg/mL: compound 10 μg/ml; for Effect on NO production: words; for inhibition at 10 µg/mL: Mus musculus, RAW264.7, 16 h
Protocol: as §4, §5

[11] = words; cited from earlier work
[12] = human OA-affected cartilage, words
[13] = Experiment II, LPS 100 ng/ml, compound 10 μg/ml, 16 hours

**Q.** Which Nitrite ([1]; Table 2, 5 μg/ml) does the source give for `NC(=O)C1=C(O)C2(O)C(=O)C3=C(O)c4c(O)cccc4CC3CC2CC1=O` (stereo not shown) [CMT-3, 6-demethyl-6-deoxy-4-dedimethylaminotetracycline] here?
**A.** 75.0 ± 25.0 µM

**Q.** And the “Effect on NO production” value [1, 12]?
**A.** significantly inhibit; also recorded: inhibiting NO production

**Q.** And the “Effect on NO production” value [2]?
**A.** inhibit NO and PGE2 production

**Q.** What about the “Effect on PGE2 production” value ([3]; LPS 100 μg/ml, 72 hrs) of the same molecule?
**A.** inhibit NO and PGE2 production

**Q.** What about the “Effect on L-NMMA induced PGE2 up-regulation” value [3] of the same molecule?
**A.** inhibits the L-NMMA induced PGE2 up-regulation

**Q.** And the inhibition at 5 µg/mL ([4]; Homo sapiens, Table 2, 5 μg/ml)?
**A.** 60%

**Q.** And the PGE2 ([4]; Table 2, 5 μg/ml)?
**A.** 88.0 ± 21.4 ng/mL

**Q.** And the “Effect on PGE2 production” value [4, 12]?
**A.** significantly inhibit; also recorded: inhibits COX-2 expression and PGE2 production

**Q.** What about the “Effect on TNFα release in the medium” value ([5]; FIG. 7) of the same molecule?
**A.** inhibits TNFα release in the medium in a dose dependent manner

**Q.** And the “Effect on spontaneous TNFα release” value ([5]; FIG. 8, 16 hours)?
**A.** inhibit the spontaneous TNFα release

**Q.** And the “Inhibition of TNFα (summary statement)” value ([5]; HEK 293 cells transfected with proTNFα cDNA, low levels)?
**A.** inhibiting TNFα

**Q.** And the “Effect on COX-2 expression” value ([6]; FIG. 2, words)?
**A.** inhibit

**Q.** What about the “Decrease in size of COX-2 versus native COX-2” value ([6]; FIG. 4A, 16 hr, Western blot) of the same molecule?
**A.** approximately 2000 D

**Q.** And the “Effect on size of COX-2” value ([6]; FIG. 4A, 16 hr, Western blot, words)?
**A.** decrease in the size of COX-2

**Q.** And the PGE2 accumulation ([7]; 16 h, 10 ug/mL)?
**A.** 8.7 ± 2.4 ng/mL

**Q.** What about the PGE2 accumulation [7, 13] of the same molecule?
**A.** 6.5 ± 0.5 ng/mL

**Q.** What about the “Effect on L-NMMA induced PGE2 production” value ([7]; FIG. 1, CMT-3+L-NMMA, LPS 100 ng/ml, words) of the same molecule?
**A.** blocks L-NMMA induced PGE2 production

**Q.** What about the “Effect on PGE2 production” value ([7]; FIG. 1, LPS 100 ng/ml, 16 hours, words) of the same molecule?
**A.** blocks both NO and PGE2 production

**Q.** What about the “Effect on PGE2 production” value ([7]; FIG. 2, LPS 100 ng/ml, words) of the same molecule?
**A.** inhibit

**Q.** And the inhibition at 10 µg/mL ([7]; Experiment I, LPS 100 ng/ml, compound 10 μg/ml, 16 hours)?
**A.** 66%

**Q.** What about the inhibition at 10 µg/mL [7, 13] of the same molecule?
**A.** 67%

**Q.** What about the “Effect on COX-2 activity” value ([7]; independent of intracellular NO, words) of the same molecule?
**A.** inhibits COX-2 activity independent of intracellular NO concentrations

**Q.** And the “Effect on iNOS mRNA expression” value [8]?
**A.** inhibiting iNOS mRNA expression

**Q.** What about the “Effect on NOS expression” value [9] of the same molecule?
**A.** inhibit

**Q.** And the Nitrite ([10]; Experiment I, 16 hours)?
**A.** 24.7 µM

**Q.** And the Nitrite ([10]; Experiment II, 16 hours)?
**A.** 11.7 µM

**Q.** What about the “Effect on NO production” value ([10]; FIG. 1, 16 hours) of the same molecule?
**A.** blocks both NO and PGE2 production

**Q.** And the “Effect on NO production” value ([10]; FIG. 2)?
**A.** inhibit

**Q.** What about the inhibition at 10 µg/mL ([10]; Experiment I, 16 hours) of the same molecule?
**A.** 48%

**Q.** And the inhibition at 10 µg/mL ([10]; Experiment II, 16 hours)?
**A.** 46%

**Q.** And the Antimicrobial activity [11]?
**A.** no antimicrobial activity

Source: patent US6319910A, “Method for inhibiting cyclooxygenase-2 and tumor necrosis factor alpha” (Hospital for Joint Diseases, priority 1998, dated 2001)
